The values below come from patent publication US10137199B2, “Thiolated hyaluronan-based hydrogels cross-linked using oxidized glutathione” (BioTime, Inc., priority 2013, dated 2018).

Data set [1] in a line: Gel formation of CMHA-S and Gelin-S with disulfide containing small molecules. The class given is physicochemical. Conditions: thiolated biopolymers CMHA-S and Gelin-S. The procedure: Initially we tested whether GSSG would be a suitable reactant for a thiol-disulfide exchange reaction with thiolated biopolymers CMHA-S and Gelin-S to form a two-component (CMHA/Gelin/GSSG) gel with no additional crosslinking molecule (FIG. 1 where R′—SH represents Gelin-S). A gel formed in approximately three minutes using a final concentration of 4 mM GSSG and 0.4% w/v CMHA-S and 0.4% w/v Gelin-S (Sample 4, Table 1).

In the next data set the test system is ADSC. The experiment in a line: Cell attachment on peptide functionalized CMHA/GSSG hydrogels, ADSC. Format: cell-based, human. Conditions: 15,000 cells/well, attach overnight, calcein AM. On the procedure:
After N-terminal maleimido-tagged peptides (Anaspec, Inc. Fremont, CCA) were resuspended in 1×PBS, 1 volume 10 mM peptide was mixed with nine volumes CMHA-S, and reaction was allowed to occur at room temperature in the dark, overnight. GSSG was added to a final concentration of 4 mM (brings peptide final concentration to 0.88 mM) and the mixture allowed to form gels in a 48-well multiwell plate. Unreacted peptides were removed by three washes of at least five volumes 1×PBS at 75 rpm 37° C., for at least 4 hr each. ADSC or BM-MSC in DMEM/10% FBS were then added to each well (15,000 cells/well in a 48 well plate) and allowed to attach overnight. On the final day, the cells were imaged by fluorescence using calcein AM stain.

`N[C@@H](CS)C(=O)O` [cysteine]: the gel formation result in data set [1] is recorded as “did not cause gel formation”.

Turning to `OC1CSSCC1O` (stereo not drawn) [oxidized DT], the gel formation result in data set [1] was “did not cause gel formation”.

As to CRGDS, the ADSC attachment entry with ADSC is recorded as “poor robustness”.
